Results as given in PubChem BioAssay (NCI).
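Values below derive from 48-hour exposures of cells grown in 96-well plates, with endpoints linearly interpolated between the two concentrations bracketing the appropriate inhibition level. TGI: total growth inhibition.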

Tests used:
Experiment in all cases: NCI tumour cell line growth inhibition, 48 h
HOP-92 NSCLC = system: HOP-92 NSCLC
HOP-62 NSCLC = system: HOP-62 NSCLC
OVCAR-8 ovarian = system: OVCAR-8 ovarian
HL-60(TB) leukemia = system: HL-60(TB) leukemia
CCRF-CEM leukemia = system: CCRF-CEM leukemia
COLO 205 colon = system: COLO 205 colon
KM12 colon = system: KM12 colon
U251 CNS = system: U251 CNS
SK-MEL-28 melanoma = system: SK-MEL-28 melanoma
DMS 273 small cell lung = system: DMS 273 small cell lung
XF 498 CNS = system: XF 498 CNS

Compound	TGI (HOP-92 NSCLC)	TGI (HOP-62 NSCLC)	TGI (OVCAR-8 ovarian)	TGI (HL-60(TB) leukemia)	TGI (CCRF-CEM leukemia)	TGI (COLO 205 colon)	TGI (KM12 colon)	TGI (U251 CNS)	TGI (SK-MEL-28 melanoma)	TGI (DMS 273 small cell lung)	TGI (XF 498 CNS)
CSc1cc(=O)n2c3ccccc3c3ccnc1c32	> 100 µM	> 100 µM	> 100 µM	> 100 µM	> 100 µM	> 100 µM	> 100 µM	> 100 µM	> 100 µM	> 100 µM	–
NCCCCNCCCNC(=O)c1nc(-c2nc(CCN)sc2Cl)sc1Cl	> 100 µM	> 100 µM	> 100 µM	> 100 µM	> 100 µM	> 100 µM	> 100 µM	> 100 µM	> 100 µM	> 100 µM	> 100 µM
COC(=O)[C@@H]1CCCCC[C@H]2C(CO)=C(C)C(=O)C12 (some centres not stated)	> 100 µM	> 100 µM	> 100 µM	> 100 µM	> 100 µM	> 100 µM	> 100 µM	> 100 µM	> 100 µM	> 100 µM	> 100 µM
CN(C)CCNC(=O)c1cc(Cl)cc2ccc(-c3ccccc3)nc12	9.35 µM	10.3 µM	13.2 µM	4.88 µM	6.01 µM	4.28 µM	22.2 µM	15.3 µM	16.1 µM	7.48 µM	5.04 µM
CC(C)N1CC2CC(CN(C(=O)c3ccccc3)C2)C1	> 100 µM	> 100 µM	> 100 µM	> 100 µM	> 100 µM	> 100 µM	> 100 µM	> 100 µM	> 100 µM	> 100 µM	> 100 µM
CC1CCC2(NC1)OC1CC3C4CC=C5CC(OC6OC(CO)C(OC7OC(C)C(O)C(O)C7O)C(O)C6OC6OC(C)C(O)C(O)C6O)CCC5(C)C4CCC3(C)C1C2C (configuration not stated)	21.1 µM	> 100 µM	8.31 µM	> 36 µM	> 55.7 µM	35.4 µM	9.17 µM	9.37 µM	4.41 µM	–	–
CCC(CO)Nc1nc(NCc2ccccc2)c2ncn(C(C)C)c2n1 (configuration not stated)	56.2 µM	33.9 µM	57.5 µM	> 70.5 µM	> 86.8 µM	34.1 µM	36.3 µM	> 100 µM	34.4 µM	–	–
CSc1nc(NC(C)C)c2c(n1)Sc1nc3ccccc3n1N=C2	31.2 µM	22.2 µM	28.8 µM	> 100 µM	> 100 µM	> 100 µM	60.9 µM	29.9 µM	> 100 µM	–	–
C=C1OC(c2ccccc2NC)=NC12CCCCC2	> 100 µM	> 100 µM	> 100 µM	> 100 µM	> 100 µM	> 100 µM	> 100 µM	> 100 µM	> 100 µM	–	–
CCCCC1=C(C(=O)N2CCOCC2)C2(OCCO2)C1=O	66.4 µM	54.1 µM	58.3 µM	61.2 µM	> 100 µM	40.2 µM	55.9 µM	88.3 µM	94.8 µM	–	–
COc1ccc(/C=c2\s/c(=C3/SC(=S)N(c4ccccc4)C3=O)n(-c3ccccc3)c2=O)cc1	> 100 µM	69.9 µM	> 100 µM	> 100 µM	77.4 µM	> 100 µM	> 100 µM	> 100 µM	> 100 µM	–	–
CC1=NN(c2nc(N)nc(-c3sccc3N)n2)C(C)(C)C1	> 100 µM	> 100 µM	> 100 µM	> 100 µM	> 100 µM	> 100 µM	> 100 µM	> 100 µM	> 100 µM	–	–
COc1ccccc1C1Nn2c(nc3ccccc3c2=O)N1c1ccc(C)cc1 (configuration not stated)	23.1 µM	20.2 µM	17 µM	49.1 µM	24.7 µM	21.2 µM	60.3 µM	6.68 µM	20.3 µM	–	–
O=S(=O)(O)c1ccc(N=Nc2ccc(N=Nc3ccc(/C=C/c4ccc(N=[N+]([O-])c5ccc(/C=C/c6ccc(N=Nc7ccc(N=Nc8ccc(S(=O)(=O)O)cc8)cc7)cc6S(=O)(=O)O)c(S(=O)(=O)O)c5)cc4S(=O)(=O)O)c(S(=O)(=O)O)c3)cc2)cc1	> 100 µM	> 100 µM	> 100 µM	> 100 µM	> 100 µM	> 100 µM	> 100 µM	> 100 µM	> 100 µM	> 100 µM	> 100 µM
